From PubChem BioAssay AID1963850 (Molecular Pharmacology Branch, DTP, NCI, 2024)

Test system: 192522-019-R-J2-PDC complex tumor spheroid viability
Test: Anticancer human tumor 192522-019-R-J2-PDC patient-derived colon adenocarcinoma cell line growth inhibition [POLQ]
Conditions: for IC50: curve of first compound; for viability, T/C: stronger effect = lower value
Procedure, shortened: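 Growth inhibition in 3D: complex spheroids (tumor PDC, HUVEC, MSC) treated with POLQ inhibitor combinations; where Cmax unknown, highest tested concentration 10 microM, except SN-38 at 1 microM.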

[1] = second compound 0.0316 µM, first compound 0.0316 µM
[2] = second compound 0.0316 µM, first compound 0.1 µM
[3] = second compound 0.0316 µM, first compound 0.316 µM
[4] = second compound 0.0316 µM, first compound 1 µM
[5] = second compound 0.0316 µM, first compound 3.16 µM
[6] = second compound 0.0316 µM, first compound 10 µM
[7] = second compound 0.1 µM, first compound 0.0316 µM
[8] = second compound 0.1 µM, first compound 0.1 µM
[9] = second compound 0.1 µM, first compound 0.316 µM
[10] = second compound 0.1 µM, first compound 1 µM
[11] = second compound 0.1 µM, first compound 3.16 µM
[12] = second compound 0.1 µM, first compound 10 µM
[13] = second compound 0.316 µM, first compound 0.0316 µM
[14] = second compound 0.316 µM, first compound 0.1 µM
[15] = second compound 0.316 µM, first compound 0.316 µM
[16] = second compound 0.316 µM, first compound 1 µM
[17] = second compound 0.316 µM, first compound 3.16 µM
[18] = second compound 0.316 µM, first compound 10 µM
[19] = second compound 1 µM, first compound 0.0316 µM
[20] = second compound 1 µM, first compound 0.1 µM
[21] = second compound 1 µM, first compound 0.316 µM
[22] = second compound 1 µM, first compound 1 µM
[23] = second compound 1 µM, first compound 3.16 µM
[24] = second compound 1 µM, first compound 10 µM
[25] = second compound 3.16 µM, first compound 0.0316 µM
[26] = second compound 3.16 µM, first compound 0.1 µM
[27] = second compound 3.16 µM, first compound 0.316 µM
[28] = second compound 3.16 µM, first compound 1 µM
[29] = second compound 3.16 µM, first compound 3.16 µM
[30] = second compound 3.16 µM, first compound 10 µM
[31] = second compound 10 µM, first compound 0.0316 µM
[32] = second compound 10 µM, first compound 0.1 µM
[33] = second compound 10 µM, first compound 0.316 µM
[34] = second compound 10 µM, first compound 1 µM
[35] = second compound 10 µM, first compound 3.16 µM
[36] = second compound 10 µM, first compound 10 µM
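Also: spheroids exposed to drugs for seven days before reading.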
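For viability, T/C in this document: 100% = DMSO vehicle control viability in luminescence.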

What does the source list for CC1COCCN1c1cc(C2(O)CC3CCC(C2)O3)c2cnn(-c3ccn[nH]3)c2n1 (centres undefined) + Nc1ccc(C#CCN(C(=O)Cc2ncc(C(F)(F)F)cc2C(F)(F)F)c2ccc(F)cc2)nn1?
IC50 (second compound 0.0316 µM): 259 nM; IC50 (second compound 0.1 µM): 265 nM; IC50 (second compound 0.316 µM): 263 nM; IC50 (second compound 1 µM): 276 nM; IC50 (second compound 3.16 µM): 331 nM; IC50 (second compound 10 µM): 284 nM; viability, T/C [1]: 95.5%; viability, T/C [2]: 76.8%; viability, T/C [3]: 44.7%; viability, T/C [4]: 34.4%; viability, T/C [5]: 44%; viability, T/C [6]: 50.1%; viability, T/C [7]: 99.2%; viability, T/C [8]: 85.3%; viability, T/C [9]: 42.2%; viability, T/C [10]: 37.6%; viability, T/C [11]: 41.3%; viability, T/C [12]: 53%; viability, T/C [13]: 97.2%; viability, T/C [14]: 80.5%; viability, T/C [15]: 44.3%; viability, T/C [16]: 35.8%; viability, T/C [17]: 44.7%; viability, T/C [18]: 48.6%; viability, T/C [19]: 97.1%; viability, T/C [20]: 81.8%; viability, T/C [21]: 45.9%; viability, T/C [22]: 36.9%; viability, T/C [23]: 45.1%; viability, T/C [24]: 51.8%; viability, T/C [25]: 97.6%; viability, T/C [26]: 82.3%; viability, T/C [27]: 51.2%; viability, T/C [28]: 36.6%; viability, T/C [29]: 46.6%; viability, T/C [30]: 49.6%; viability, T/C [31]: 92.4%; viability, T/C [32]: 74.8%; viability, T/C [33]: 47.8%; viability, T/C [34]: 36.4%; viability, T/C [35]: 51.9%; viability, T/C [36]: 50%

For COc1cc(C2c3cc4c(cc3C(OC3OC5COC(C)OC5C(O)C3O)C3COC(=O)C23)OCO4)cc(OC)c1O (centres undefined) + Cc1cccc(N(C)C(=O)C2C(O)CCN2c2nc(C)cc(C(F)(F)F)c2C#N)c1, which IC50 (second compound 0.0316 µM) is on record?
Its IC50 is > 10000 nM.

And the IC50 (second compound 0.1 µM)?
Its IC50 is > 10000 nM.

What about the IC50 (second compound 0.316 µM) of the same compound?
Its IC50 is > 10000 nM.

What about the IC50 (second compound 1 µM) of the same compound?
Its IC50 is > 10000 nM.

And the IC50 (second compound 3.16 µM)?
The IC50 was > 10000 nM.

And the IC50 (second compound 10 µM)?
Its IC50 is > 10000 nM.

And the viability, T/C [1]?
The viability, T/C was 96.8%.

What about the viability, T/C [2] of the same compound?
The viability, T/C was 91.4%.

What about the viability, T/C [3] of the same compound?
The viability, T/C was 103%.

What about the viability, T/C [4] of the same compound?
The viability, T/C was 86.1%.

And the viability, T/C [5]?
Its viability, T/C is 64.7%.

And the viability, T/C [6]?
Its viability, T/C is 68.5%.

What about the viability, T/C [7] of the same compound?
The viability, T/C was 103%.

And the viability, T/C [8]?
The viability, T/C was 98.8%.

What about the viability, T/C [9] of the same compound?
The viability, T/C was 97.1%.

What about the viability, T/C [10] of the same compound?
The viability, T/C was 90.1%.

And the viability, T/C [11]?
Its viability, T/C is 58.6%.

And the viability, T/C [12]?
The viability, T/C was 72.1%.

What about the viability, T/C [13] of the same compound?
Its viability, T/C is 107%.

What about the viability, T/C [14] of the same compound?
Its viability, T/C is 108%.

And the viability, T/C [15]?
Its viability, T/C is 96.4%.

And the viability, T/C [16]?
The viability, T/C was 93.3%.

And the viability, T/C [17]?
Its viability, T/C is 65.8%.

What about the viability, T/C [18] of the same compound?
The viability, T/C was 68.3%.

What about the viability, T/C [19] of the same compound?
Its viability, T/C is 108%.

What about the viability, T/C [20] of the same compound?
The viability, T/C was 97.6%.

What about the viability, T/C [21] of the same compound?
The viability, T/C was 98.9%.

And the viability, T/C [22]?
Its viability, T/C is 95.7%.

And the viability, T/C [23]?
The viability, T/C was 70.5%.

And the viability, T/C [24]?
The viability, T/C was 69.3%.

What about the viability, T/C [25] of the same compound?
The viability, T/C was 113%.

What about the viability, T/C [26] of the same compound?
The viability, T/C was 105%.

And the viability, T/C [27]?
The viability, T/C was 102%.

What about the viability, T/C [28] of the same compound?
The viability, T/C was 88.5%.

What about the viability, T/C [29] of the same compound?
Its viability, T/C is 79.9%.

What about the viability, T/C [30] of the same compound?
Its viability, T/C is 63.1%.

And the viability, T/C [31]?
Its viability, T/C is 117%.

And the viability, T/C [32]?
The viability, T/C was 104%.

What about the viability, T/C [33] of the same compound?
Its viability, T/C is 105%.

And the viability, T/C [34]?
Its viability, T/C is 91.6%.

What about the viability, T/C [35] of the same compound?
Its viability, T/C is 80%.

What about the viability, T/C [36] of the same compound?
The viability, T/C was 65.2%.
